Measured values reported in article PMC10044245, “Comparative Evaluation of Existing and Rationally Designed Novel Antimicrobial Peptides for Treatment of Skin and Soft Tissue Infections” (Antibiotics, 2023).
Converted amounts (≈) assume the structure as drawn. Where a SMILES comes first, the peptide text is derived from it.

What was measured:
[1] = tested on: BALB/c 3T3 murine fibroblast cell line; assay: Cytotoxicity, neutral red uptake assay; type: cell-based; conditions: 48 h
Text: The BALB/c 3T3 murine fibroblast cell line was obtained from ATCC (American Type Culture Collection, Manassas, VA, USA). Primary human dermal fibroblasts were isolated by enzymatic digestion from skin biopsies in the Laboratory of Bioanalytical and Biodosimetry Methods, University of Latvia, in accordance with the approval of the Committee of Research Ethics of the Institute of Cardiology and Regenerative Medicine, University of Latvia. Cells were propagated in DMEM medium (Sigma, Irvine, UK), supplemented with 1% penicillin (100 U/mL)–streptomycin (100 μg/mL), and 10% calf serum (Sigma, St. Louis, MO, USA) for Balb/c 3T3 cell line and fetal bovine serum (Sigma, St. Louis, MO, USA) for primary dermal fibroblasts. All cultivations were performed in a humidified 5% CO2 atmosphere at 37 °C.
The cytotoxicity of the peptides was tested in the BALB/c3T3 cell line and primary dermal fibroblasts by the neutral red (NR) uptake assay. Cells were seeded in 96-well plates at a density of 5 × 10^3 cells per well. After 24 h of incubation, peptides in a concentration range of 3.9 to 500 μg/mL were added. Dilutions were made in a cell cultivation medium. Cultivation in the presence of extracts was performed for 48 h. Afterwards, plates were washed with phosphate-buffered saline (PBS) (Sigma, Irvine, UK), and a 25 µg/mL NR solution (Sigma, Irvine, UK) diluted in 5%-fetal-calf-serum-containing-media was added. After 3 h, incubation in a humidified 5% CO2 atmosphere at 37 °C, the plate was washed with PBS, and the NR taken up by viable cells was extracted using desorbing fixative (50% ethanol/1% acetic acid/49% water). Absorbance at 540 nm was measured using a microplate reader Tecan Infinite® 200 PRO (Tecan Group Ltd., Mannedorf, Switzerland). Cytotoxicity was expressed as a concentration-dependent reduction in the uptake of NR, compared to the untreated controls and calculated using the following equation: Cell viability (%)=Abs540nm(treatment)−Abs540nm(background)/Abs540nm(untreated control)−Abs540nm(background)×100%

[2] = tested on: E. coli; assay: microbe, parasite or virus in culture; type: cell-based, Escherichia coli; conditions: for MIC: Escherichia coli, 96-well plate, serial dilutions, 32 °C, 13–18 h, 200 rpm, OD 550 nm, lowest concentration preventing growth
Experimental: (§1) Quantification of the antimicrobial resistance against various AMPs was carried out by measuring the bacterial growth in the presence of peptides at serial dilutes in 96 well plates in a microplate (96-well plate) reader Infinite® M200 PRO Multimode Microplate Reader (Tecan, Maennedorf, Switzerland) according to our recent reports. All bacterial strains were incubated at 32 °C for 13–18 h at 200 rpm. Optical density measurements (λ = 550 nm) were taken automatically at 10 min intervals. Antimicrobial resistance activity was quantified as the minimum inhibitory concentration (MIC)—the lowest concentration of a peptide which prevents growth of bacterial cells.

[3] = tested on: P. aeruginosa; assay: microbe, parasite or virus in culture; type: cell-based, Pseudomonas aeruginosa; conditions: for MIC: Pseudomonas aeruginosa, 96-well plate, serial dilutions, 32 °C, 13–18 h, 200 rpm, OD 550 nm
Experimental: as §1

[4] = tested on: C. acnes; assay: microbe, parasite or virus in culture; type: cell-based, Cutibacterium acnes; conditions: for MIC: Cutibacterium acnes, 96-well plate, serial dilutions, 32 °C, 13–18 h, 200 rpm, OD 550 nm
Experimental: as §1

[5] = tested on: S. aureus; assay: microbe, parasite or virus in culture; type: cell-based, Staphylococcus aureus; conditions: for MIC: Staphylococcus aureus, 96-well plate, serial dilutions, 32 °C, 13–18 h, 200 rpm, OD 550 nm
Experimental: as §1

[6] = tested on: K. pneumonia; assay: microbe, parasite or virus in culture; type: cell-based, Klebsiella pneumoniae; conditions: for MIC: Klebsiella pneumoniae, 96-well plate, serial dilutions, 32 °C, 13–18 h, 200 rpm, OD 550 nm
Experimental: as §1

[7] = tested on: E. faecium; assay: microbe, parasite or virus in culture; type: cell-based, Enterococcus faecium
Experimental: as §1

`CC[C@H](C)[C@H](NC(=O)[C@H](CCCNC(=N)N)NC(=O)[C@H](CCCCN)NC(=O)[C@H](C)NC(=O)[C@@H](NC(=O)[C@@H](N)CCCCN)[C@@H](C)CC)C(=O)N[C@@H](Cc1c[nH]c2ccccc12)C(=O)N[C@@H](CCCCN)C(=O)N[C@@H](CCCNC(=N)N)C(=O)N[C@H](C(=O)N[C@@H](Cc1c[nH]c2ccccc12)C(=O)N[C@@H](CCCCN)C(=O)N[C@H](C(=O)N[C@@H](CC(C)C)C(=O)N[C@@H](CCCNC(=N)N)C(=O)N[C@@H](CCCNC(=N)N)C(=O)N[C@@H](CCCNC(=N)N)C(=O)O)[C@@H](C)CC)[C@@H](C)CC` [PA13, reference compound] (H-KIAKRIWKRIWKILRRR-OH) was tested, and the “IC50, viability of Balb/c 3T3 cells” value [1] was 262 µg/mL, the “MIC E. coli” value [2] was 31.0 µg/mL (≈ 13.4 µM) and the “Therapeutic Index E. coli” value [2] was 8.5. For the same compound, the “MIC P. aeruginosa” value [3] was 16.0 µg/mL (≈ 6.89 µM), the “Therapeutic Index P. aeruginosa” value [3] was 16.4 and the “MIC C. acnes” value [4] was 16.0 µg/mL (≈ 6.89 µM). For the same compound, the “Therapeutic Index C. acnes” value [4] was 16.4, the “MIC S. aureus” value [5] was 2.0 µg/mL (≈ 0.862 µM) and the “Therapeutic Index S. aureus” value [5] was 131.0. For the same compound, the “MIC K. pneumonia” value [6] was 16.0 µg/mL (≈ 6.89 µM), the “Therapeutic Index K. pneumonia” value [6] was 16.4 and the “MIC E. faecium” value [7] was 4.0 µg/mL (≈ 1.72 µM). For the same compound, the “Therapeutic Index E. faecium” value [7] was 65.5.
In the case of `CNC(C)C1CCC(N)C(OC2C(N)CC(N)C(OC3OCC(C)(O)C(NC)C3O)C2O)O1` (centres unmarked) [Gentamicin, gentamicin, reference compound], the MIC [2] is reported as 1 µg/mL (≈ 2.09 µM), the MIC [3] is reported as 0.25 µg/mL (≈ 0.523 µM) and the MIC [5] is reported as 0.25 µg/mL (≈ 0.523 µM). For the same compound, the MIC [6] was 0.25 µg/mL (≈ 0.523 µM) and the MIC ([7]; Enterococcus faecium, 96-well plate, serial dilutions, 32 °C, 13–18 h, 200 rpm, OD 550 nm) was 1 µg/mL (≈ 2.09 µM).
In the case of `CC[C@H](C)[C@H](N)C(=O)N[C@@H](C)C(=O)N[C@@H](CCCCN)C(=O)N[C@@H](CCCCN)C(=O)N[C@@H](Cc1ccccc1)C(=O)N[C@@H](Cc1c[nH]c2ccccc12)C(=O)N1CCC[C@H]1C(=O)N[C@@H](CCCCN)C(=O)N[C@@H](Cc1ccccc1)C(=O)N[C@@H](Cc1c[nH]c2ccccc12)C(=O)N[C@@H](CCCCN)C(=O)N[C@@H](Cc1ccccc1)C(=O)N[C@@H](Cc1c[nH]c2ccccc12)C(=O)N[C@@H](CCCCN)C(=O)N[C@H](C(=O)N[C@@H](Cc1ccccc1)C(=O)N[C@@H](CCCCN)C(=O)N[C@@H](CCCCN)C(=O)N[C@H](C(=O)N[C@@H](C)C(=O)O)[C@@H](C)CC)[C@@H](C)CC` [Peptide R13] (H-IAKKFWPKFWKFWKIFKKIA-OH), the “IC50, viability of Balb/c 3T3 cells” value [1] is reported as 79.37 µg/mL, the “Therapeutic Index E. coli” value [2] is reported as 19.8 and the “MIC P. aeruginosa” value [3] is reported as 4.0 µg/mL (≈ 1.51 µM). The “Therapeutic Index P. aeruginosa” value [3] was 19.8, the “MIC C. acnes” value [4] was 0.3 µg/mL (≈ 0.114 µM) and the “Therapeutic Index C. acnes” value [4] was 263.3. For the same compound, the “MIC S. aureus” value [5] was 4.0 µg/mL (≈ 1.51 µM), the “Therapeutic Index S. aureus” value [5] was 19.8 and the “MIC K. pneumonia” value [6] was 8.0 µg/mL (≈ 3.03 µM). The “Therapeutic Index K. pneumonia” value [6] was 9.9, the “MIC E. faecium” value [7] was 16.0 µg/mL (≈ 6.06 µM) and the “Therapeutic Index E. faecium” value [7] was 4.9.
With `CC[C@H]1OC(=O)[C@H](C)[C@@H](O[C@H]2C[C@@](C)(OC)[C@@H](O)[C@H](C)O2)[C@H](C)[C@@H](O[C@@H]2O[C@H](C)C[C@H](N(C)C)[C@H]2O)[C@](C)(O)C[C@@H](C)CN(C)[C@H](C)[C@@H](O)[C@]1(C)O` [Azythromycin, Azithromycin dihydrate, reference compound] the MIC [5] was 0.5 µg/mL and the MIC [6] was 8 µg/mL.
For `[H]/N=C(\N/C(=N/[H])NCCCCCCNC(=N)NC(=N)Nc1ccc(Cl)cc1)Nc1ccc(Cl)cc1` [Chlorhexidine, chlorhexidine, reference compound], the MIC [2] was 16 µg/mL (≈ 31.7 µM), the MIC [3] was 1 µg/mL (≈ 1.98 µM) and the MIC [4] was 1 µg/mL (≈ 1.98 µM). The MIC [5] was 1 µg/mL (≈ 1.98 µM).
`O=C(OOC(=O)c1ccccc1)c1ccccc1` [Benzoyl peroxide, reference compound] was tested, and the MIC [2] was 31 µg/mL (≈ 128 µM), the MIC [4] was 80 µg/mL (≈ 330 µM) and the MIC [5] was 1250 µg/mL (≈ 5160 µM).
With `CC[C@H]1OC(=O)[C@H](C)[C@@H](O[C@H]2C[C@@](C)(OC)[C@@H](O)[C@H](C)O2)[C@H](C)[C@@H](O[C@@H]2O[C@H](C)C[C@H](N(C)C)[C@H]2O)[C@](C)(OC)C[C@@H](C)C(=O)[C@H](C)[C@@H](O)[C@]1(C)O` [Claritromycin, clarithromycin, reference compound] the MIC [5] was 0.25 µg/mL (≈ 0.334 µM) and the MIC [6] was 64 µg/mL (≈ 85.6 µM).
